Experiment: xn = mol fraction of the nth substance listed

CCCCCCCCCCO + CCO
viscosity [mPa·s], 101 kPa
Details | 298.15 K | 308.15 K | 318.15 K
x2 = 0.05 | 10.42 | 7.3 | 4.847
x2 = 0.1 | 9.841 | 7.003 | 4.436
x2 = 0.15 | 9.249 | 6.644 | 4.102
x2 = 0.2 | 8.648 | 6.24 | 3.83
x2 = 0.25 | 8.044 | 5.809 | 3.604
x2 = 0.3 | 7.442 | 5.364 | 3.409
x2 = 0.35 | 6.845 | 4.919 | 3.236
x2 = 0.4 | 6.259 | 4.484 | 3.073
x2 = 0.45 | 5.687 | 4.065 | 2.912
x2 = 0.5 | 5.133 | 3.671 | 2.747
x2 = 0.55 | 4.6 | 3.304 | 2.575
x2 = 0.6 | 4.09 | 2.967 | 2.391
x2 = 0.65 | 3.606 | 2.659 | 2.195
x2 = 0.7 | 3.15 | 2.378 | 1.989
x2 = 0.75 | 2.723 | 2.119 | 1.775
x2 = 0.8 | 2.326 | 1.876 | 1.558
x2 = 0.85 | 1.961 | 1.641 | 1.344
x2 = 0.9 | 1.627 | 1.402 | 1.141
x2 = 0.95 | 1.325 | 1.146 | 0.9601

NC(N)=O + CCO
viscosity [mPa·s], 101 kPa
Details | 293.15 K | 298.15 K | 303.15 K | 308.15 K | 313.15 K | 318.15 K | 323.15 K
x1 = 0.02956 | 1.328 | 1.204 | 1.095 | 0.999 | 0.914 | 0.839 | 0.772
x1 = 0.03764 | 1.386 | 1.251 | 1.134 | 1.031 | 0.94 | 0.859 | 0.788
x1 = 0.04782 | 1.476 | 1.329 | 1.202 | 1.09 | 0.991 | 0.904 | 0.828

COCCOCCO + CCOC(=O)OCC
298.15 K, 101.33 kPa
Details | viscosity [mPa·s]
x1 = 0.0177 | 0.765
x1 = 0.0409 | 0.784
x1 = 0.0525 | 0.794
x1 = 0.0688 | 0.809
x1 = 0.0808 | 0.819
x1 = 0.0974 | 0.834
x1 = 0.1182 | 0.856
x1 = 0.1376 | 0.878
x1 = 0.1665 | 0.911
x1 = 0.1973 | 0.949
x1 = 0.2247 | 0.98
x1 = 0.26 | 0.984
x1 = 0.3011 | 1.095
x1 = 0.3362 | 1.148
x1 = 0.4104 | 1.282
x1 = 0.438 | 1.337
x1 = 0.4644 | 1.394
x1 = 0.4835 | 1.436
x1 = 0.5151 | 1.511
x1 = 0.5529 | 1.61
x1 = 0.5929 | 1.721
x1 = 0.6445 | 1.874
x1 = 0.6774 | 1.978
x1 = 0.7326 | 2.167
x1 = 0.7642 | 2.295
x1 = 0.8034 | 2.456
x1 = 0.8312 | 2.576
x1 = 0.861 | 2.709
x1 = 0.8942 | 2.87
x1 = 0.9328 | 3.065
x1 = 0.9487 | 3.15
x1 = 0.9554 | 3.189
x1 = 0.9613 | 3.221

Cc1ccc(Cl)cc1 + CCOC(=O)c1ccccc1
viscosity [mPa·s], 101 kPa
Details | 303.15 K | 313.15 K
x2 = 0.0536 | 0.745 | 0.65
x2 = 0.1068 | 0.729 | 0.632
x2 = 0.1858 | 0.73 | 0.629
x2 = 0.2507 | 0.751 | 0.644
x2 = 0.3392 | 0.806 | 0.686
x2 = 0.4157 | 0.876 | 0.739
x2 = 0.4913 | 0.959 | 0.801
x2 = 0.592 | 1.092 | 0.904
x2 = 0.6657 | 1.201 | 0.991
x2 = 0.762 | 1.359 | 1.109
x2 = 0.8333 | 1.484 | 1.206
x2 = 0.907 | – | 1.315
x2 = 0.9071 | 1.623 | –
x2 = 0.9524 | 1.713 | 1.385

— the CheMixHub viscosity set
